In ChEMBL document CHEMBL1121427, “Decomposition of pharmacological activity indices into mutually independent components using principal component analysis” (J Med Chem, 1980):

Columns and labels:
[1] = -Log C was determined by performing the pentylenetetrazole test; type: ADME; design: unit not given here
[2] = -Log C was determined by performing the maximum electroshock test; type: ADME; design: unit not given here
[3] = -Log C was determined by performing the electroshock minimum test; type: ADME; design: unit not given here
[4] = -Log C was determined by performing the incl screen test; type: ADME; design: unit not given here
[5] = -Log C was determined by performing the foot shock test; type: ADME; design: unit not given here
[6] = tested on: Trichophyton benhamiae; test: The compound was evaluated for activity against Trichophyton mentagrophytes; type: functional, Arthroderma benhamiae
[7] = tested on: Aspergillus niger; test: The compound was evaluated for activity against Aspergillus niger; type: functional
[8] = tested on: Aspergillus oryzae; test: The compound was evaluated for activity against Aspergillus oryzae; type: functional; design: unit not given here
[9] = tested on: Albifimbria verrucaria; test: (§1) The compound was evaluated for activity against Myrothecium verrucaria; type: functional; design: unit not given here
[10] = tested on: Trichoderma viride; test: The compound was evaluated for activity against Trichoderma viride; type: functional; design: unit not given here
[11] = tested on: Bacillus subtilis; test: Inhibitory activity against Bacillus subtilis; type: functional; design: unit not given here
[12] = tested on: Enterococcus faecalis; test: The compound was evaluated for activity against strain Streptococcus faecalis; type: functional; design: unit not given here
[13] = tested on: Staphylococcus aureus; test: The compound was evaluated for activity against strain Micrococcus aureus; type: functional; design: unit not given here
[14] = tested on: Streptococcus pyogenes; test: The compound was evaluated for activity against strain Streptococcus hemolyticus; type: functional; design: unit not given here
[15] = tested on: Albifimbria verrucaria; test: as §1; type: functional

CN(C)c1ccc2c(c1)C(c1ccccc1)=NCC(=O)N2C
-Log C [1]: 1.7
-Log C [2]: 0.5
-Log C [3]: 0.06
-Log C [4]: 0.29
-Log C [5]: 0.87

O=[N+]([O-])c1cc(I)c2cccnc2c1O
-Log C [6]: 1.89 mM l-1
-Log C [7]: 0.7 mM l-1
-Log C [8]: 0.57
-Log C [9]: 0.6
-Log C [10]: 0.89

O=[N+]([O-])c1cc(F)c2cccnc2c1O
-Log C [6]: 1.72 mM l-1
-Log C [7]: 1.06 mM l-1
-Log C [8]: 0.85
-Log C [9]: 1.02
-Log C [10]: 1.06

Oc1c(Br)cc(Cl)c2cccnc12
-Log C [6]: 2.11 mM l-1
-Log C [7]: 1.92 mM l-1

O=[N+]([O-])c1cc(Cl)c(O)c2ncccc12
-Log C [6]: 2.35 mM l-1
-Log C [7]: 0.89 mM l-1

Oc1c(F)cc(F)c2cccnc12
-Log C [6]: 1.66 mM l-1
-Log C [7]: 1.36 mM l-1

CC(C)(C)N1C(=O)CN=C(c2ccccc2)c2cc(Cl)ccc21
-Log C [1]: 0.39
-Log C [2]: 0.26
-Log C [3]: 0.39
-Log C [4]: 0.19
-Log C [5]: 0.51

O=[N+]([O-])c1cc(Br)c(O)c2ncccc12
-Log C [6]: 2.43 mM l-1
-Log C [7]: 1.01 mM l-1
-Log C [8]: 0.66
-Log C [9]: 1.72
-Log C [10]: 1.32

Oc1c(Cl)ccc2cccnc12
-Log C [6]: 2.25 mM l-1
-Log C [7]: 1.77 mM l-1

Oc1c(Br)ccc2cccnc12
-Log C [6]: 2.35 mM l-1
-Log C [7]: 1.89 mM l-1
-Log C [8]: 1.89
-Log C [9]: 2.35
-Log C [10]: 2.35

Oc1c(Cl)cc(F)c2cccnc12
-Log C [6]: 2.3 mM l-1
-Log C [7]: 1.82 mM l-1
-Log C [8]: 1.7
-Log C [9]: 2.29
-Log C [10]: 2.29

Oc1c(F)cc(I)c2cccnc12
-Log C [6]: 2.46 mM l-1
-Log C [7]: 2 mM l-1
-Log C [8]: 1.46
-Log C [9]: 2.46
-Log C [10]: 2

Nc1cc(Br)c2cccnc2c1O
-Log C [6]: 1.6 mM l-1
-Log C [7]: 0.57 mM l-1
-Log C [8]: 0.68
-Log C [9]: 0.96
-Log C [10]: 0.92

Oc1c(F)cc(Cl)c2cccnc12
-Log C [6]: 2.3 mM l-1
-Log C [7]: 2 mM l-1
-Log C [8]: 1.7
-Log C [9]: 2.29
-Log C [10]: 2.29

COC1/C=C/OC2(C)Oc3c(C)c(O)c4c(O)c(cc(OCC(=O)N5CCCCC5C)c4c3C2=O)NC(=O)/C(C)=C\C=C\C(C)C(O)C(C)C(O)C(C)C(OC(C)=O)C1C (stereo not given)
-Log C [11]: 6.67
-Log C [12]: 7.45
-Log C [13]: 8.22
-Log C [14]: 7.92

O=[N+]([O-])c1cc(Br)c2cccnc2c1O
-Log C [6]: 2.43 mM l-1
-Log C [7]: 0.62 mM l-1
-Log C [8]: 0.66
-Log C [9]: 1.13
-Log C [10]: 1.13

Oc1c(Cl)cc(Br)c2cccnc12
-Log C [6]: 2.41 mM l-1
-Log C [7]: 2.11 mM l-1
-Log C [8]: 1.82
-Log C [9]: 2.41
-Log C [10]: 2.41

Oc1c(F)cc(Br)c2cccnc12
-Log C [6]: 2.39 mM l-1
-Log C [7]: 1.92 mM l-1
-Log C [8]: 1.62
-Log C [9]: 2.39
-Log C [10]: 1.92

Oc1c(F)ccc2cccnc12
-Log C [6]: 1.92 mM l-1
-Log C [15]: 1.75 mM l-1
-Log C [7]: 1.32 mM l-1

Nc1cc(I)c2cccnc2c1O
-Log C [6]: 2.21 mM l-1
-Log C [7]: 1.15 mM l-1
-Log C [8]: 1.03
-Log C [9]: 1.51
-Log C [10]: 1.21

CCN(CCO)C(=O)COc1cc2c(O)c3c(O)c(C)c4c(c13)C(=O)C(C)(O/C=C/C(OC)C(C)C(OC(C)=O)C(C)C(O)C(C)C(O)C(C)/C=C/C=C(/C)C(=O)N2)O4 (stereo not given)
-Log C [11]: 5.73
-Log C [12]: 6.18
-Log C [13]: 7.52
-Log C [14]: 6.96

Oc1c(I)cc(F)c2cccnc12
-Log C [6]: 2.46 mM l-1
-Log C [7]: 2 mM l-1
-Log C [8]: 2.62
-Log C [9]: 1.16
-Log C [10]: 2.46

Oc1c(Br)cc(I)c2cccnc12
-Log C [6]: 2.24 mM l-1
-Log C [7]: 2.07 mM l-1
-Log C [8]: 1.85
-Log C [9]: 2.24
-Log C [10]: 2.24

CN1C(=O)CN=C(c2ccccc2)c2cc(C#N)ccc21
-Log C [1]: 2.36
-Log C [2]: 1.29
-Log C [3]: 0.14
-Log C [4]: 1.14
-Log C [5]: 1.74

COc1ccccc1C1=NCC(=O)Nc2ccc(Cl)cc21
-Log C [1]: 1.6
-Log C [2]: 1
-Log C [3]: 0.35
-Log C [4]: 0
-Log C [5]: 0.48

Cc1ccccc1C1=NCC(=O)Nc2ccc(Cl)cc21
-Log C [1]: 1.57
-Log C [2]: 1.13
-Log C [3]: 0.19
-Log C [4]: 0.28
-Log C [5]: 0.45

CCN1C(=O)CN=C(c2ccccc2)c2cc(Cl)ccc21
-Log C [1]: 1.87
-Log C [2]: 1.56
-Log C [3]: 0.3
-Log C [4]: 0.6
-Log C [5]: 1.17

O=[N+]([O-])c1cc(Cl)c2cccnc2c1O
-Log C [6]: 1.89 mM l-1
-Log C [7]: 1.15 mM l-1

Cc1ccc2c(c1)C(c1ccccc1)=NCC(=O)N2
-Log C [1]: 1.55
-Log C [2]: 1.75
-Log C [3]: 0.51
-Log C [4]: 0.4
-Log C [5]: 0.4

O=[N+]([O-])c1ccc2cccnc2c1O
-Log C [6]: 1.8 mM l-1
-Log C [7]: 0.48 mM l-1
-Log C [8]: 0.28
-Log C [9]: 1.13
-Log C [10]: 1.28

O=[N+]([O-])c1cc(F)c(O)c2ncccc12
-Log C [6]: 2.32 mM l-1
-Log C [7]: 0.44 mM l-1
-Log C [8]: 0.68
-Log C [9]: 1.21
-Log C [10]: 1.32

COC1/C=C/OC2(C)Oc3c(C)c(O)c4c(O)c(cc(OCC(=O)N5CCCCCC5)c4c3C2=O)NC(=O)/C(C)=C\C=C\C(C)C(O)C(C)C(O)C(C)C(OC(C)=O)C1C (stereo not given)
-Log C [11]: 6.45
-Log C [12]: 7.45
-Log C [13]: 8.32
-Log C [14]: 7.92

Oc1c(I)cc(Br)c2cccnc12
-Log C [6]: 2.24 mM l-1
-Log C [7]: 2.07 mM l-1
-Log C [8]: 1.24
-Log C [9]: 2.24
-Log C [10]: 1.96

Oc1c(Br)cc(F)c2cccnc12
-Log C [6]: 2.39 mM l-1
-Log C [7]: 1.92 mM l-1
-Log C [8]: 1.67
-Log C [9]: 2.39
-Log C [10]: 2.39

N#Cc1ccc2c(c1)C(c1ccccc1)=NCC(=O)N2
-Log C [1]: 2.3
-Log C [2]: 0.89
-Log C [3]: 0.41
-Log C [4]: 0.54
-Log C [5]: 0.82

Oc1c(I)ccc2cccnc12
-Log C [6]: 2.43 mM l-1
-Log C [7]: 2.13 mM l-1
-Log C [8]: 1.48
-Log C [9]: 2.43
-Log C [10]: 2.43

CCCCN(CCCC)C(=O)COc1cc2c(O)c3c(O)c(C)c4c(c13)C(=O)C(C)(O/C=C/C(OC)C(C)C(OC(C)=O)C(C)C(O)C(C)C(O)C(C)/C=C/C=C(/C)C(=O)N2)O4 (stereo not given)
-Log C [11]: 7.16
-Log C [12]: 7.46
-Log C [13]: 8.46
-Log C [14]: 7.86

C#CCN(CCC)C(=O)COc1cc2c(O)c3c(O)c(C)c4c(c13)C(=O)C(C)(O/C=C/C(OC)C(C)C(OC(C)=O)C(C)C(O)C(C)C(O)C(C)/C=C/C=C(/C)C(=O)N2)O4 (stereo not given)
-Log C [11]: 6.97
-Log C [12]: 7.14
-Log C [13]: 8.44
-Log C [14]: 8.62

CN(C)c1ccc2c(c1)C(c1ccccc1)=NCC(=O)N2
-Log C [1]: 0.82
-Log C [2]: 0.12
-Log C [3]: 0.38
-Log C [4]: 0.25
-Log C [5]: 0.45

Oc1c(I)cc(Cl)c2cccnc12 [CLIOQUINOL]
-Log C [6]: 2.01 mM l-1
-Log C [7]: 2.01 mM l-1

O=C1CN=C(c2ccccc2)c2cc(C(F)(F)F)ccc2N1 [RO-052904]
-Log C [1]: 2.48
-Log C [2]: 1.78
-Log C [3]: 1.16
-Log C [4]: 1.48
-Log C [5]: 1.48
